The values that follow come from patent US20240300886A1, “ARYLCYCLOHEXYLAMINE DERIVATIVES AND THEIR USE IN THE TREATMENT OF PSYCHIATRIC DISORDERS” (GILGAMESH PHARMACEUTICALS, INC., priority 2021, published 2024).

Molecules are shown by their SMILES.

Data set [1] has as its target MK-801 binding site of the N-methyl-D-aspartate receptor (NMDAR). Briefly: NMDA receptor radioligand binding with [3H]MK-801. Also noted: species or system Wistar rat. Particulars: [3H]MK-801 displacement, Wistar rat brain (minus cerebellum); read-out: NMDAR Ki (95% CI). The method, then:
The binding affinities of disclosed compounds at the MK-801 binding site of the N-methyl-D-aspartate receptor (NMDAR) were determined in radioligand binding experiments (Table 13).
Radioligand Binding. Affinity of the test compounds for NMDAR was determined in radioligand binding experiments with [^3H]MK-801 by Eurofins Panlabs, Inc., using methods adapted from the literature (Javitt el al. 1987; Reynolds et al. 1989) and under the conditions described in Table 14.

For data set [2], the target named is serotonin transporter (SERT) (Homo sapiens (Human), UniProt P31645). Put plainly: SERT fluorescent substrate uptake inhibition in transfected cells. The note with it: stably transfected cells expressing SERT. The class given is cell-based. The method, then:
The ability of disclosed compounds to inhibit uptake of monoamines by the serotonin transporter (SERT) was measured using a fluorescent substrate uptake assay in transfected cells (Table 15). […] Considering that inhibitors of SERT are well known to have antidepressant and anxiolytic effects and are among the most commonly prescribed drugs for mood disorders (e.g. fluoxetine, sertraline, etc.), blockade of SERT by certain compounds of the present disclosure is expected to synergize with their NMDAR inhibition to increase therapeutic activity for treating depression and related disorders. […] Further, the ability to tune the ratio between SERT and NMDAR is useful to obtain the optimal therapeutic profile depending on the intended clinical indication.
Uptake Inhibition. The ability of test compounds to block monoamine uptake by SERT was determined using the Neurotransmitter Transporter Uptake Assay Kit manufactured by Molecular Devices (Cat #R8173). Briefly, stably transfected cells expressing SERT were grown and plated into 384-well plates at a concentration of 20,000 cells per well. Plates were then incubated for 16-20 h at 37° C. and 5% CO2. The medium was then aspirated and replaced with 25 μL of assay buffer (20 mM HEPES in HBSS, containing 0.1% BSA) containing the test compounds at the appropriate concentrations. Plates were then centrifuged at 300 rpm for 15 s and then incubated at 37° C. for 30 minutes. At this time, 25 μL of the proprietary fluorescent dye solution was added, the plates were incubated at 37° C. for 60 minutes, and then fluorescence was quantified on a plate reader (excitation wavelength=440 nm, emission wavelength=520 nm). The proprietary dye solution contains a mixture of 1) a fluorescent dye that mimics the endogenous substrate of SERT and is thereby actively transported to the intracellular compartment in the absence of an inhibitor and 2) a masking dye that inhibits the fluorescence of dye 1 in the extracellular compartment. Therefore, the overall fluorescence of the system increases as the fluorescent dye is transported into the cells.

Data set [3] can be described thus: Metabolic stability in rat liver microsomes (RLM). Format: in vitro ADME, Sprague Dawley rats. The note with it: male, Sprague Dawley, rat, pooled rat liver microsomes, pH 7.4, 1 μM compound, 0.50 mg protein/mL, NADPH. Here is the method: (§1) RLM Stability. Pooled RLM from male Sprague Dawley rats (XenoTech R1000) were used. Microsomal incubations were carried out in multi-well plates. Liver microsomal incubation medium consisted of PBS (100 mM, pH 7.4), MgCl2 (1 mM), and NADPH (1 mM), with 0.50 mg of liver microsomal protein per mL. Control incubations were performed by replacing the NADPH-cofactor system with PBS. Test compounds (1 μM, final solvent concentration 1.0%) were incubated with microsomes at 37° C. with constant shaking. Six time points over 60 minutes were analyzed, with 60 μL aliquots of the reaction mixture being drawn at each time point. The reaction aliquots were stopped by adding 180 μL of cold (4° C.) acetonitrile containing 200 ng/mL tolbutamide and 200 ng/mL labetalol as internal standards (IS), followed by shaking for 10 minutes, and then protein sedimentation by centrifugation at 4,000 rpm for 20 minutes at 4° C. Supernatant samples (80 μL) were diluted with water (240 μL) and analyzed for parent compound remaining using a fit-for-purpose liquid chromatography-tandem mass spectrometry (LC-MS/MS) method.
(§2) Data Analysis. The elimination constant (kel), half-life (t1/2) and intrinsic clearance (Clint) were determined in a plot of […] versus time, using linear regression analysis.

A short description of data set [4]: Metabolic stability in dog liver microsomes (DLM). The class given is in vitro ADME, beagle dogs. The note with it: male, beagle, dog, pooled dog liver microsomes, pH 7.4, 1 μM compound, 0.50 mg protein/mL, NADPH. The method, then:
as §1, with “DLM” for “RLM”, “beagle dogs” for “Sprague Dawley rats”, “D1000)” for “R1000)”, “([…]),” for “(IS),”
as §2

The nature of data set [5]: Metabolic stability in mouse liver microsomes (MLM). Format: in vitro ADME, CD-1 mice. The note with it: male, CD-1, mouse, pooled mouse liver microsomes, pH 7.4, 1 μM compound, 0.50 mg protein/mL, NADPH. The method, then:
as §1, with “MLM” for “RLM”, “CD-1 mice” for “Sprague Dawley rats”, “M1000)” for “R1000)”
Data Analysis. The elimination constant (kel), half-life (t1/2) and intrinsic clearance (Clint) were determined in a plot of ln(AUC) versus […], using linear regression analysis.

Data set [6] can be described thus: Metabolic stability in cynomolgus monkey liver microsomes (CLM). Format: in vitro ADME, cynomolgus monkeys. Particulars: male, cynomolgus monkey, pooled cynomolgus monkey liver microsomes, pH 7.4, 1 μM compound, 0.50 mg protein/mL, NADPH. The method, then:
as §1, with “CLM” for “RLM”, “cynomolgus monkeys (Corning 452413)” for “Sprague Dawley rats (XenoTech R1000)”
as §2

The nature of data set [7]: Metabolic stability in human liver microsomes (HLM). The class given is in vitro ADME. The note with it: 0.50 mg protein/mL, NADPH. The method, then: HLM Stability. Pooled HLM from adult male and female donors (Corning 452117) were used. Microsomal incubations were carried out in multi-well plates. Liver microsomal incubation medium consisted of PBS (100 mM, pH 7.4), MgCl2 (1 mM), and NADPH ([…]), with 0.50 mg of liver microsomal protein per mL. Control incubations were performed by replacing the NADPH-cofactor system with PBS. Test compounds (1 μM, final solvent concentration 1.0%) were incubated with microsomes at 37° C. with constant shaking, Six time points over 60 minutes were analyzed, with 60 μL aliquots of the reaction mixture being drawn at each time point. The reaction aliquots were stopped by adding 180 μL of cold (4° C.) acetonitrile containing 200 ng/mL tolbutamide and 200 ng/mL labetalol as internal standards (IS), followed by shaking for 10 minutes, and then protein sedimentation by centrifugation at 4,000 rpm for 20 minutes at 4° C. Supernatant samples (80 μL) were diluted with water (240 μL) and analyzed for parent compound remaining using a fit-for-purpose liquid chromatography-tandem mass spectrometry (LC-MS/MS) method.
as §2

As to `CN[C@@]1(c2ccccc2Cl)CCCCC1=O` [(R)-ketamine, reference compound], the Ki in data set [1] turned out to be 2.2 µM.

On to `CN[C@]1(c2ccccc2Cl)CCCCC1=O` [(S)-ketamine, reference compound], for which the Ki in data set [1] is 0.7 µM.

Regarding `N[C@@]1(c2cccc(F)c2)CCCCC1=O` [Compound 3R, (R)-2-amino-2-(3-fluorophenyl)cyclohexan-1-one], the inhibition at 10 µM in data set [2] was 1.75%. The half-life at 1 μM in data set [3] is over 2.42 h; in data set [4], 0.667 h; in data set [5] it was 2 h; in data set [6], 1.85 h; in data set [7] (both sexes, human, pooled human liver microsomes, pH 7.4, 1 μM compound), over 2.42 h. Moreover, the microsomal CLint at 1 μM in data set [3] is under 9.6 µL/min/mg; in data set [4], 34.6 µL/min/mg; in data set [5], 11.6 µL/min/mg; in data set [6] it was 12.5 µL/min/mg. This compound also had a Clint in data set [7] (1 μM compound) of under 9.6 μL/min/m.
